Data on two compounds can be found in patent US20260284009A1, “COMPOUNDS FOR NOS-RELATED CANCERS AND METHODS OF USE” (YISSUM RESEARCH DEVELOPMENT COMPANY OF THE HEBREW …, priority 2023, published 2026).

The subject of assay [1] is SH-SY5Y cells. Kind of assay: Immunofluorescent staining of Syp and 3-Ntyr in SH-SY5Y cells. To be noted: immunofluorescence, 100 μM 7-NI or 20 nM siRNA. In kind it is cell-based, human. The method, then:
In FIGS. 5A-5C, for quantitative analysis each group consisted of three independent sets of experiments run in triplicate. Data are presented as mean±SEM. Statistical significance was determined using a One-way ANOVA followed by Fisher's LSD multiple comparison post hoc test. **P<0.01 and ***P<0.001.
FIG. 5A: Representative immunofluorescent images of SH-SY5Y cells stained for Syp and 3-Ntyr following administration of the control (“SH-SY5Y”), 100 μM 7-NI (“SH-SY5Y+7-NI”), or 20 nM siRNA (SEQ ID NO: 4) (“SH-SY5Y+si-nNOS”). The scale bar is 10 μm.
FIG. 5B: Quantitative analysis of fluorescent intensity of Syp for the experiments of FIG. 5A.
FIG. 5C: Quantitative analysis of fluorescent intensity of 3-Ntyr for the experiments of FIG. 5A.

Assay [2] has as its system SH-SY5Y-xenografted mice. Kind of assay: Tumor volume in SH-SY5Y-xenografted mice. In kind it is in vivo. To be noted: 80 mg/kg 7-NI, after 1 month, vs control. As for the experimental part:
Data are presented as mean±SEM. Statistical significance was determined using a One-way ANOVA followed by Fisher's LSD multiple comparison post hoc test. **P<0.01.

Assay [3] concerns U87-MG-xenografted mice. Kind of assay: Tumor volume and tumor mass in U87-MG-xenografted mice. Format: in vivo. To be noted: for tumor volume in a subset of mice: subset (top 4-5, smallest tumor volume) of U87-MG-xenografted mice, 10 mg/kg L-NIL or both. The method, then:
In FIGS. 16A-16B, data are expressed as the mean±SEM. Statistical significance was determined using a One-way ANOVA followed by Fisher's LSD multiple comparison post hoc test. **P<0.01, ***P<0.001, ****P<0.0001, and ns=not significant.
FIG. 16A: Temporal tumor volume comparison for U87-MG-xenografted mice receiving treatment with 0.1% DMSO (“vehicle”) (n=10), 80 mg/kg 7-NI (“7-NI”) (n=10), 10 mg/kg L-NIL (“L-NIL”) (n=10), or 80 mg/kg 7-NI and 10 mg/kg L-NIL concurrently administered (“Combo”) (n=15).
FIG. 16B: Quantitative analysis of tumor volume for U87-MG-xenografted mice after 8 days for the experiments of FIG. 16A.
In FIGS. 17A-17B, data are expressed as the mean±SEM. Statistical significance was determined using a One-way ANOVA followed by Fisher's LSD multiple comparison post hoc test. *P<0.05, ****P<0.0001, and ns=not significant.
FIG. 17B: Quantitative analysis of tumor volume after 8 days for the subset of U87-MG-xenografted mice for the experiments of FIG. 17A.
In FIGS. 18A-18B, data are expressed as the mean.
Data are expressed as the mean±SEM. Statistical significance was determined using a One-way ANOVA with Bonferroni's multiple comparisons tests. **P<0.01, ****P<0.0001, ns=not significant.
Data are expressed as the mean±SEM. Statistical significance was determined using a One-way ANOVA with Bonferroni's multiple comparisons tests. *P<0.05, **P<0.01, ***P<0.001, and ****P<0.0001.

For assay [4], the system named is SH-SY5Y cells. Kind of assay: Nitrite levels (marker of NO levels) by Griess assay in SH-SY5Y cells. In kind it is cell-based, human. Conditions: 100 μM 7-NI or 20 nM siRNA (SEQ ID NO: 4), n=3. As for the experimental part: (§1) In FIGS. 2A-2C, for quantitative analysis absorbance at 585 nm was normalized for total protein. Data are expressed as the mean±SEM. Statistical significance was determined using a One-way ANOVA followed by Fisher's LSD multiple comparison post hoc test. *P<0.05 and **P<0.01.
FIG. 2B: Quantitative analysis of nitrite levels (a marker of NO levels) measured by Griess assay for SH-SY5Y cells following administration of the control (“SH-SY5Y”) (n=3), 0.1% DMSO (“SH-SY5Y+NC”) (n=3), 100 μM 7-NI (“SH-SY5Y+7-NI”) (n=3), 20 nM siRNA (SEQ ID NO: 4) (“SH-SY5Y+si-nNOS”) (n=3).

Assay [5] deals with U87-MG cells. Kind of assay: Xenograft glioblastoma model, U87-MG cells in NSG mice: survival experiment. In kind it is in vivo. Conditions: 80 mg/kg or 120 mg/kg 7-NI intraperitoneally daily, vehicle-treated mice 35 days. As for the experimental part:
A xenograft glioblastoma model was generated by injecting 1.0×10^6 U87-MG cells (in PBS) into the subcutaneous tissue in the flank of NOD SCID Gamma (NSG) male (n=40) and female mice (n=5). Mice were 6-7 weeks old at time of injections. Mice were divided into groups and treatment was started when tumor volume reached 50 mm^3.
A survival experiment was performed in the mice, the treatment groups were saline (“Vehicle”) (n=10), 80 mg/kg 7-NI (n=10), and 120 mg/kg 7-NI (n=8). Treatments were administered intraperitoneally daily.

Assay [6] relates to SH-SY5Y cells. The experiment in a line: NADPH-diaphorase activity in cell lysates of SH-SY5Y cells. Format: cell-based, human. Conditions: 100 μM 7-NI or 20 nM siRNA (SEQ ID NO: 4), absorbance at 585 nm normalized for total protein, n=3. As for the experimental part:
as §1
FIG. 2A: Quantitative analysis of NADPH-diaphorase activity in cell lysates of SH-SY5Y cells following the administration of the control (“SH-SY5Y”) (n=3), 0.1% DMSO (“SH-SY5Y+NC”) (n=3), 100 μM 7-NI (“SH-SY5Y+7-NI”) (n=3), or 20 nM siRNA (SEQ ID NO: 4) (“SH-SY5Y+si-nNOS”) (n=3).
FIG. 2C: Representative images of cultured SH-SY5Y cells stained for NADPH-diaphorase activity.

For assay [7], the system named is CD70. Kind of assay: CD70 expression level in U87-MG cells. In kind it is cell-based, human. Conditions: both the lower and higher doses, compared to the control; not statistically significant (FIG. 13).
The subject of assay [8] is nNOS. The experiment in a line: nNOS expression level in U87-MG cells. Conditions: both the lower dose and higher dose, compared to the control treatment; not statistically significant (FIG. 15). In kind it is cell-based, human.
The test system of assay [9] is U87-MG-xenografted mice. Kind of assay: Tumor growth in U87-MG-xenografted mice. In kind it is in vivo. Conditions: 10 mg/kg, compared to the vehicle (FIGS. 16-17). As for the experimental part: In a particular example, in vitro and in vivo experiments were performed using U87-MG cells and U87-MG-xenografted mice, respectively, as a glioblastoma model.
[10] abbreviates: U87-MG-xenografted mice, 80 mg/kg 7-NI, 10 mg/kg L-NIL or both concurrently, after 8 days, vs vehicle.

Regarding `O=[N+]([O-])c1cccc2cn[nH]c12` [7-NI, 7-nitroindazole], in assay [1], the “3-Ntyr expression levels (fluorescent intensity)” value is “significant decrease”. In assay [1], the “Syp expression levels (fluorescent intensity)” value is recorded as “significant decrease”. Also, the tumor volume result in assay [2] was “significantly smaller”; in assay [3] (setting [10]), “significantly smaller”; in assay [3] (U87-MG-xenografted mice, 20, 40 or 80 mg/kg 7-NI intraperitoneal for 14 days, vs vehicle) it was “significantly smaller”. For the same compound, the tumor mass entry in assay [3] (U87-MG-xenografted mice, 20, 40 or 80 mg/kg 7-NI, after 14 days, vs vehicle) is on record as “significantly smaller”. In addition, the “tumor volume in a subset of mice” value in [3] (80 mg/kg 7-NI, after 8 days) is reported as “significantly smaller”. The “nitrite levels (a marker of NO levels)” value in [4] is given as “significant decrease”. Moreover, the median survival in [5] was ~ 65 days. The NADPH-diaphorase activity result in assay [6] was “significant decrease”.

`CC(=N)NCCCC[C@H](N)C(=O)O` [L-NIL, N^6-(1-iminoethyl)-L-lysine]: the “expression level of CD70” value in assay [7] is given as “slightly decreased”. The tumor volume entry in [3] (setting [10]) is “significantly smaller”. Besides, the “tumor volume in a subset of mice” value in [3] (80 mg/kg 7-NI, after 8 days) is recorded as “significantly smaller”. Besides, in [8], the “expression level of nNOS” value is recorded as “reduced”. Besides, in assay [9], the average tumor size result was “significantly smaller”.
